This note sets out measurements from ChEMBL document CHEMBL5108056, “Discovery of Isoform-Selective Akt3 Degraders Overcoming Osimertinib-Induced Resistance in Non-Small Cell Lung Cancer Cells” (J Med Chem, 2022).

One may read the EC50 as the concentration needed to bring the measured effect to its halfway point. By Emax is commonly meant the maximal effect, on the per cent scale that the assay sets. By IC50 is commonly meant the point on the concentration scale where inhibition reaches its midpoint.

Series [1] concerns the target T1, RAC-alpha serine/threonine-protein kinase (Homo sapiens, UniProt P31749). In words: Induction of AKT1 degradation in human NCI-H1975 cells assessed as reduction in AKT1 protein level incubated for 24 hrs under serum free medium by Western blot analysis. The format is cell-based.
In series [2] the target is T2, RAC-gamma serine/threonine-protein kinase (Homo sapiens, UniProt Q9Y243). In words: Induction of AKT3 degradation in human NCI-H1975 cells assessed as reduction in AKT3 protein level at 1000 nM incubated for 24 hrs under serum free medium by Western blot analysis relative to control. The format is cell-based. For orientation: In western blotting, separated proteins are transferred to a membrane and probed.
T2 sequence (Q9Y243 whole entry): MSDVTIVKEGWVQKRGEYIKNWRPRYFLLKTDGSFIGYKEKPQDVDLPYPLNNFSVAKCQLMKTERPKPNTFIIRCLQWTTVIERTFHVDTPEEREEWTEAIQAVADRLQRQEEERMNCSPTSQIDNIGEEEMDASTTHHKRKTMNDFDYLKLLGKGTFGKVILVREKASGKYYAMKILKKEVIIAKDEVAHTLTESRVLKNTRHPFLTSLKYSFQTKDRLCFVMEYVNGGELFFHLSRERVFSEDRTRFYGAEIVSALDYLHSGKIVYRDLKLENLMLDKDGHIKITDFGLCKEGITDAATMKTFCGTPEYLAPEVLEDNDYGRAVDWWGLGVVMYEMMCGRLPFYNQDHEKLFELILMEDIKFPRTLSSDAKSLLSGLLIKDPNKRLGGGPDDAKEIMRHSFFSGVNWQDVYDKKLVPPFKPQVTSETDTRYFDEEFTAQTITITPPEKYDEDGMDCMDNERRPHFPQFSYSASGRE

Series [3] has as its target Epidermal growth factor receptor (Homo sapiens, UniProt P00533, T790M). Put plainly: Inhibition of EGFR T790M mutant in human NCI-H1975 cells incubated for 24 hrs under serum free medium by Western blot analysis. The series is classed as cell-based.
For series [4], the target named is T2, RAC-gamma serine/threonine-protein kinase. Put plainly: Induction of AKT3 degradation in human NCI-H1975 cells assessed as reduction in AKT3 protein level incubated for 24 hrs under serum free medium by Western blot analysis. The format is cell-based.
The target of series [5] is T3, RAC-beta serine/threonine-protein kinase (Homo sapiens, UniProt P31751). In words: Induction of AKT2 degradation in human NCI-H1975 cells assessed as reduction in AKT2 protein level incubated for 24 hrs under serum free medium by Western blot analysis. The format is cell-based.
T3 sequence (P31751 whole entry): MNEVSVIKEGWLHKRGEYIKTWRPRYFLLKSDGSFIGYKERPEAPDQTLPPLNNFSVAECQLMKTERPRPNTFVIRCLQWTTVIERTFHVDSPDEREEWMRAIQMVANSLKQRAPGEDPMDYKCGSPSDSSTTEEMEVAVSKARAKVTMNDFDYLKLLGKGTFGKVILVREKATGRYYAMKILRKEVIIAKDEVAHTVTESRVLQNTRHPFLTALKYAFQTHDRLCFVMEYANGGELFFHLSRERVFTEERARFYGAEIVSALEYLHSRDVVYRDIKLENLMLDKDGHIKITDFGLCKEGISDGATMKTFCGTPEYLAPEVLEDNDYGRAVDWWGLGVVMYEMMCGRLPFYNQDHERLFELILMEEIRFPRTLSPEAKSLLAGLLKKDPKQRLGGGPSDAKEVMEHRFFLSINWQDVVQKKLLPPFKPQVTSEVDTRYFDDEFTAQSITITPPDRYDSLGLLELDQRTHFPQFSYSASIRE
In series [6] the target is T2, RAC-gamma serine/threonine-protein kinase. Put plainly: Binding affinity to full length N-terminal His6-sumo tagged AKT3 (unknown origin) expressed Escherichia coli BL21 (DE3) cells by pull-down/ Western blot analysis.
Series [7] has the same target. In words: Binding affinity to full length N-terminal His6-sumo tagged AKT3 (unknown origin) expressed Escherichia coli BL21 (DE3) cells incubated for 2 hrs by pull-down/ LC-MS analysis.
Series [8] deals with NCI-H1975. Put plainly: Antiproliferative activity against human NCI-H1975 cells harbouring wild type Akt3 assessed as reduction in cell viability incubated for 72 hrs by CCK-8 assay. Conditions: NCI-H1975, 72 h. A general note: Formazan colour is commonly taken as a measure of viable cells.
Series [9] has as its system NCI-H1975. In words: Antiproliferative activity against human NCI-H1975 cells harbouring Akt3 T305A/S472A mutant assessed as reduction in cell viability incubated for 72 hrs by CCK-8 assay. The series is classed as functional, cell-based. Conditions: NCI-H1975, 72 h.
The subject of series [10] is NCI-H1975. In words: Antiproliferative activity against human NCI-H1975 cells assessed as reduction in cell viability incubated for 72 hrs by CCK-8 assay. Conditions: NCI-H1975, 72 h.
Series [11] addresses T2, RAC-gamma serine/threonine-protein kinase. In words: Induction of AKT3 degradation in human osimertinib resistant NCI-H1975 cells assessed as reduction in AKT3 protein level incubated for 24 hrs by Western blot analysis. The format is cell-based. Conditions: dose 1.6-1000 nM, DDE = dose-dependent effect.
The target is the same in series [12]. In words: Induction of AKT3 degradation in human A549 cells assessed as reduction in AKT3 protein level incubated for 24 hrs by Western blot analysis. The following applies: dose 1.6-1000 nM, DDE = dose-dependent effect. The series is classed as cell-based.
Series [13] shares this target. Put plainly: Induction of AKT3 degradation in human osimertinib resistant NCI-H1975 cells assessed as increase in AKT3 degradation at 100 nM incubated for 24 hrs in presence of cycloheximide. The series is classed as cell-based.
Series [14] shares this target. In words: Induction of AKT3 degradation in human osimertinib resistant NCI-H1975 cells by gel fluorescence and Coomassie bright blue staining based analysis. The series is classed as cell-based.
For series [15], the target named is Epidermal growth factor receptor (Homo sapiens, UniProt P00533). In words: Inhibition of EGFR in human NCI-H1975 cells. The series is classed as cell-based.
Sequence of Epidermal growth factor receptor (Homo sapiens, UniProt P00533) (P00533 whole entry): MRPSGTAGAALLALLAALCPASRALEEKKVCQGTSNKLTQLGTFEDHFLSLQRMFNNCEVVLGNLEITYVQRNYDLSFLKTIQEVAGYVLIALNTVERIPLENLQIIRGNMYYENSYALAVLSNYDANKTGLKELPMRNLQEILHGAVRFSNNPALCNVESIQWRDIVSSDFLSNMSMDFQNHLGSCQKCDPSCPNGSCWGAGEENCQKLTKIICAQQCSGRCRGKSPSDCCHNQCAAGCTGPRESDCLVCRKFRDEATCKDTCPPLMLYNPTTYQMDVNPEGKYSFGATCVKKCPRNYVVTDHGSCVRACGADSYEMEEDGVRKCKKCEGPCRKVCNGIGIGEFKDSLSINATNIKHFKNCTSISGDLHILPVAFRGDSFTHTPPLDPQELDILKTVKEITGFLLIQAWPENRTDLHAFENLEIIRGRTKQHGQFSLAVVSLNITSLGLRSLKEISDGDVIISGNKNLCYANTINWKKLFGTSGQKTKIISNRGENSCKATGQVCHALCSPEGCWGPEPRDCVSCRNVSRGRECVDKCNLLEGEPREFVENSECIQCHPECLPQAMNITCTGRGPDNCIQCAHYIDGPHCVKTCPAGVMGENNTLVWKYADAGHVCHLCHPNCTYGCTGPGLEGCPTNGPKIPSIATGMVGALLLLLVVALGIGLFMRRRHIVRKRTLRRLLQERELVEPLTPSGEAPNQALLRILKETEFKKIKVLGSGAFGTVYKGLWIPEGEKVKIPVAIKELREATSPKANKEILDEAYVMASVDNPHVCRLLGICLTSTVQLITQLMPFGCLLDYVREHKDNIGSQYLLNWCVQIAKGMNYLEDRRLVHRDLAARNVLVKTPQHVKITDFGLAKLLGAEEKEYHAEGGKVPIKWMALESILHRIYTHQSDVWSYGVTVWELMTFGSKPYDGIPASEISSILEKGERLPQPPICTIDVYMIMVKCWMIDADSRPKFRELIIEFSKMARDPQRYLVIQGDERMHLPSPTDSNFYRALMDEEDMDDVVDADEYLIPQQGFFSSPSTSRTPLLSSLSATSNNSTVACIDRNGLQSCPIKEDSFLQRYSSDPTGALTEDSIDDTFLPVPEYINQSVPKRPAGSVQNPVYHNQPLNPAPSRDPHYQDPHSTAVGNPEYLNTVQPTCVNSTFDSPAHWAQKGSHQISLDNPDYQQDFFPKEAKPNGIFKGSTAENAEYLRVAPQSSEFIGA
Series [16] relates to NCI-H1975. In words: In vivo antitumor activity against human osimertinib resistant NCI-H1975 cells xenografted in NOD-SCID mouse assessed as tumor growth inhibition at 40 mg/kg, ip qd administered every 3 days for 5 weeks relative to control. The series is classed as functional, organism-based.
Series [17] deals with T2, RAC-gamma serine/threonine-protein kinase. In words: Induction of AKT3 degradation in human PC-9 cells assessed as reduction in AKT3 protein level incubated for 24 hrs by Western blot analysis. Conditions: dose 1.6-1000 nM, DDE = dose-dependent effect. The series is classed as cell-based.
In another series the test system is PC-9. In words: In vivo antitumor activity against human PC-9 cells xenografted in NOD-SCID mouse assessed as tumor growth inhibition at 20 mg/kg, ip qd administered once every 2 days for 28 days relative to control. Conditions: PC-9, 672 h, time 28 day, read-out: TGI. The format is functional. (In general: A xenograft is tissue or cells of one species grown in another, often human tumour cells in immunodeficient mice.)

For series [18], the target named is T2, RAC-gamma serine/threonine-protein kinase. Put plainly: Induction of AKT3 degradation in human osimertinib resistant NCI-H1975 cells assessed as increase in AKT3 ubiquitination at 100 nM incubated for 24 hrs in the presence of proteosome inhibitor MG132 by immunoprecipitation analysis. The series is classed as cell-based.
For series [19] the target is unchanged. Put plainly: Induction of endogenous AKT3 degradation in human osimertinib resistant NCI-H1975 cells. The series is classed as cell-based.
The subject of series [20] is NCI-H1975. Put plainly: In vivo induction of AKT3 degradation in human osimertinib resistant cells xenografted in NOD-SCID mouse assessed as reduction in AKT3 level in tumor tissue at 10 to 40 mg/kg, ip qd administered every 3 days for 5 weeks by Western blot analysis. The series is classed as functional, organism-based. Conditions: dose 10-40 mg/kg.
Series [21] deals with T2, RAC-gamma serine/threonine-protein kinase. Put plainly: Induction of AKT3 degradation in human NCI-H1975 cells assessed as reduction in AKT3 protein level incubated for 24 hrs by Western blot analysis. The format is cell-based. Conditions: dose 1.6-1000 nM, DDE = dose-dependent effect.
The subject of series [22] is NCI-H1975. In words: In vivo antitumor activity against human osimertinib resistant NCI-H1975 cells xenografted in NOD-SCID mouse assessed as tumor growth inhibition at 20 mg/kg, ip qd administered every 3 days for 5 weeks relative to control. The format is functional, organism-based.
In series [23] the target is T2, RAC-gamma serine/threonine-protein kinase. Put plainly: Binding affinity to AKT3 in human NCI-H1975 cells assessed as increase in thermal stability at 2 uM by thermal shift assay. The format is cell-based.
For series [24], the system named is NCI-H1975. Put plainly: In vivo antitumor activity against human osimertinib resistant NCI-H1975 cells xenografted in NOD-SCID mouse assessed as tumor growth inhibition at 10 mg/kg, ip qd administered every 3 days for 5 weeks relative to control. The series is classed as functional, organism-based.
A short description of series [25]: Toxicity in NOD-SCID mouse xenografted with human PC-9 cells assessed as change in body weight at 20 mg/kg, ip qd administered once every 2 days for 28 days. The following applies: in vivo, 672 h, time 28 day. The series is classed as organism-based.
For series [26], the target named is T2, RAC-gamma serine/threonine-protein kinase. Put plainly: Induction of AKT3 degradation in human HCC827 cells assessed as reduction in AKT3 protein level incubated for 24 hrs by Western blot analysis. The series is classed as cell-based. Conditions: dose 1.6-1000 nM, DDE = dose-dependent effect.
For series [27], the system named is NCI-H1975. In words: Antiproliferative activity against human osimertinib resistant NCI-H1975 cells assessed as reduction in cell viability measured after 24 hrs by CCK-8 assay. The series is classed as functional, cell-based. Conditions: NCI-H1975, 24 h.
Series [28] deals with T2, RAC-gamma serine/threonine-protein kinase. Put plainly: Induction of AKT3 degradation in human NCI-H460 cells assessed as reduction in AKT3 protein level incubated for 24 hrs by Western blot analysis. The format is cell-based. Conditions: dose 1.6-1000 nM, DDE = dose-dependent effect.
Series [29] in a line: Toxicity in NOD-SCID mouse xenografted with human osimertinib resistant NCI-H1975 cells assessed as change in body weight at 10 to 40 mg/kg, […] administered every 3 days for 5 weeks. The format is organism-based. The following applies: in vivo, 840 h, dose 10-40 mg/kg.
The target in series [30] is T2, RAC-gamma serine/threonine-protein kinase. In words: Induction of AKT3 degradation in human NCI-H1299 cells assessed as reduction in AKT3 protein level incubated for 24 hrs by Western blot analysis. The series is classed as cell-based. The following applies: dose 1.6-1000 nM, DDE = dose-dependent effect.
The target of series [31] is T1, RAC-alpha serine/threonine-protein kinase. In words: Induction of AKT1 degradation in human NCI-H1975 cells assessed as reduction in AKT1 protein level at 1000 nM incubated for 24 hrs under serum free medium by Western blot analysis relative to control. The format is cell-based.
The target of series [32] is T3, RAC-beta serine/threonine-protein kinase. In words: Induction of AKT2 degradation in human NCI-H1975 cells assessed as reduction in AKT2 protein level at 1000 nM incubated for 24 hrs under serum free medium by Western blot analysis relative to control. The format is cell-based.

Calls of active or inactive are those of the source. The rule behind the calls is not given here.

T1 sequence (P31749 whole entry): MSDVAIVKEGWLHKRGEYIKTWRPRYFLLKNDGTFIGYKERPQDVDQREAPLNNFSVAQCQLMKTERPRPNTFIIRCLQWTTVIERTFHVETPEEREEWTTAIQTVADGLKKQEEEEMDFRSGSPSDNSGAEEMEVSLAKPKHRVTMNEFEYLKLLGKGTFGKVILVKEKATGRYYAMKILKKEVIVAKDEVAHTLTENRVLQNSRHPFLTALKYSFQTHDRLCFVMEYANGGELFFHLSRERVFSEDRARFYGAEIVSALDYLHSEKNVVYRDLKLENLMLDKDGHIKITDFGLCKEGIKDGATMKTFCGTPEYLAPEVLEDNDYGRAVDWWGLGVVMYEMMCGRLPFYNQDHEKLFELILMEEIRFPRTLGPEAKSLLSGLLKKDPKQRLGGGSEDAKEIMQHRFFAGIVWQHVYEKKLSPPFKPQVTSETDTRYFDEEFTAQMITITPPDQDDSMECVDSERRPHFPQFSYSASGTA
Sequence of Epidermal growth factor receptor (Homo sapiens, UniProt P00533, T790M) (P00533 25-1210 T790M limits assumed): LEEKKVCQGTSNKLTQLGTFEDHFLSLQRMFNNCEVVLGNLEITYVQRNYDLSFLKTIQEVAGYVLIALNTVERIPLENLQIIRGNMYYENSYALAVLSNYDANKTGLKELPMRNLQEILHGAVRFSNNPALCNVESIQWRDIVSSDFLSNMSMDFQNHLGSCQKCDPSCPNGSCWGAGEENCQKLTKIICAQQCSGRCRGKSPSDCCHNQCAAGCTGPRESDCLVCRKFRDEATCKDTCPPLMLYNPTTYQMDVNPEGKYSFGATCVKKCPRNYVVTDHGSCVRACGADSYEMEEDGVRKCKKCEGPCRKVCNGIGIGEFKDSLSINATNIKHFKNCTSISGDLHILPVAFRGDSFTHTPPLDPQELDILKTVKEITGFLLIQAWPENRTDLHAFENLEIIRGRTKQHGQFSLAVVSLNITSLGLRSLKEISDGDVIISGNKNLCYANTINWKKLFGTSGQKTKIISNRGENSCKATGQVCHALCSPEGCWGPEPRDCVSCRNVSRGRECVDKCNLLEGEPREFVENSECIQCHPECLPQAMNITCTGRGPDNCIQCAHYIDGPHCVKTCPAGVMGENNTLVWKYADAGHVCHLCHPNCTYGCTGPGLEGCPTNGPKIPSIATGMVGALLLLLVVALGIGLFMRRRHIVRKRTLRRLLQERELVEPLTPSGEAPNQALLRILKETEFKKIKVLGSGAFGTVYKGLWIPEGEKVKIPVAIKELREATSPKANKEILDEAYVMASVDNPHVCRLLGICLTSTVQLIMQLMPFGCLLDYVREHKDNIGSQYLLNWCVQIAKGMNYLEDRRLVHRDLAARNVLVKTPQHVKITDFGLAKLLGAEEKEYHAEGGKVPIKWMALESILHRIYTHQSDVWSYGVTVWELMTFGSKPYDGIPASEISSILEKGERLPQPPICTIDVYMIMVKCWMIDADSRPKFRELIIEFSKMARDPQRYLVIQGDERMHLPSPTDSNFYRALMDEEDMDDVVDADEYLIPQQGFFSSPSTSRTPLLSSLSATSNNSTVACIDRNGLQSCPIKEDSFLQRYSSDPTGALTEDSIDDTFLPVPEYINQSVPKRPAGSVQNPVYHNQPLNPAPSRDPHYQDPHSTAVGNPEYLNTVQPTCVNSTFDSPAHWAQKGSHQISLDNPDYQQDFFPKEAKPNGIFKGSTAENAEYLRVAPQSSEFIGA

`C=CC(=O)Nc1cccc(-n2c(=O)cc(C)c3cnc(Nc4ccc(N5CCN(CCCCCCCCCCCCNC(=O)CC67CC8CC(CC(C8)C6)C7)CC5)cc4OC)nc32)c1`: the EC50 in series [1] was greater than 1000 nM; in series [3], 20.1 nM; in series [4], 52 nM; in [5] it was greater than 1000 nM. In addition, the maximal effect (Emax) in series [2] was 73%.

As for `C#CCN(CCCCCCCCCCCCN1CCN(c2ccc(Nc3ncc4c(C)cc(=O)n(-c5cccc(NC(=O)C6CC6)c5)c4n3)c(OC)c2)CC1)C(=O)CC12CC3CC(CC(C3)C1)C2`, the result in series [6] and in series [7] was Active.

Consider `C=CC(=O)Nc1cc(Nc2nccc(-c3cn(C)c4ccccc34)n2)c(OC)cc1N(C)CCN(C)C` [OSIMERTINIB], for which the figures for the IC50 in the series on NCI-H1975 [8], in the series on NCI-H1975 [9] and in the series with NCI-H1975 [10] were […], […] and […], respectively.

As to `COc1cc(N2CCN(CCCCCCCCCCCCNC(=O)CC34CC5CC(CC(C5)C3)C4)CC2)ccc1Nc1ncc2c(C)cc(=O)n(-c3cccc(NC(=O)C4CC4)c3)c2n1`, the Activity result in series [11] is “Dde”; in series [12], “Dde”; in series [17] it was “Dde”; in series [21] it was “Dde”; in series [25] it was “Non-Toxic”; in series [26] it was “Dde”. Moreover, the Activity result in series [28] is “Dde”; in series [29] it was “Non-Toxic”; in series [30], “Dde”. In addition, the result (in series [13]; in series [7]; in series [14]; in the series on NCI-H1975 [16]; in [18]; in series [19]) was Active. The outcome (in the series with NCI-H1975 [20]; in the series with NCI-H1975 [22]; in series [23]; with NCI-H1975 [24]) was Active. Further, the EC50 in series [15] is 579 nM; in [1], greater than 1000 nM; in series [4], 13 nM; in series [5] it was greater than 1000 nM. In addition, in the series on PC-9, the inhibition in vivo at 20 mg/kg is 75%. In addition, the Emax in [2] stood at 88%. For the same molecule, the IC50 with NCI-H1975 [27] stood at 7 nM.

For the molecule `COc1cc(N2CCN(CCCCCCCCCCCCNC(=O)CC34CC5CC(CC(C5)C3)C4)CC2)ccc1Nc1ncc2c(C)cc(=O)n(-c3cccc(NC(=O)C(C)C)c3)c2n1`, the EC50 is 143 nM in series [15], greater than 1000 nM in [1], 33 nM in series [4] and greater than 1000 nM in [5]. In addition, the Emax in [2] was determined as 71%.

As for `C=CC(=O)Nc1cccc(-n2c(=O)cc(C)c3cnc(Nc4ccc(N5CCN(CCCCCCCCNC(=O)CC67CC8CC(CC(C8)C6)C7)CC5)cc4OC)nc32)c1`, the Emax in series [31] is 55%; in series [2], 75%; in [32] it was 69%. In addition, the EC50 was determined as 168 nM in [1], 52 nM in [4] and 82 nM in [5].
